A value given as a limit tells only on which side of the number the result lay.

Common to all, as to assay type: cell-based
Series [1] concerns HBsAg. The series can be described thus: PHH HBV natural infection assay, HBsAg (alphalisa). The conditions noted are these: Hepatitis B virus, Hepatocyte, read-out: HBsAg IC50. The procedure:
(§1) Detailed procedures regarding primary human hepatocyte (PHH) HBV natural infection assay are described as below. One tube of frozen PHH (10 million cells) is thawed in 37° C. water bath and then transferred to 20 mL of PHH thawing medium (Sigma, InVitroGRO HT Medium, Cat. S03319) with gently mixing. The cells were then centrifuged at […] for 5 min, the supernatant was discarded and the tube was refilled with 25 mL of PHH plating medium (Sigma, InVitroGRO CP Medium, Cat. S03317). The tube was shaken very gently to re-suspend all cells, and then 50 μL of cells were transferred to each well 384-well collagen I coated plate with appropriate liquid handling equipment, e.g. Integra VIAFLO384 or Agilent Bravo. The cells were then cultured for 24 hours in a cell incubator. For HBV infection, after PHH attachment on the culture plate, the plating medium was removed and replenished with PHH culture medium containing HBV virus. The PHH culture medium was prepared with Dulbecco's Modified Eagle Medium (DMEM)/F12 (1:1 in volume ratio) containing 10% fetal bovine serum (Gibco, Cat. 10099141), 5 ng/mL human epidermal growth factor (Gibco, Cat. PHG0311L), 20 ng/mL dexamethasone (Sigma, Cat. D4902-100 mg), 250 ng/mL human recombinant insulin (Gibco, Cat. 41400045) and 100 U/mL penicillin. HBV virus at 200 genome equivalent (GE) per cell with 4% PEG8000 (Sigma, Cat. P1458) containing culture medium were added to the PHH culture medium for infection. The cells were then cultured for 24 hours in cell incubator. Then the cell culture supernatant was removed. The HBV-infected PHH were cultured with sandwich culture method with MEI culture medium containing 1% DMSO and 0.25 mg/mL matrix gel for 72 hours. The supernatant was then refreshed with PHH culture medium containing different concentrations of testing compounds for two times with 72-hour interval. At the end of treatment, the supernatant was collected for viral markers measurements, including HBsAg, HBeAg, HBV DNA and cytotoxicity. HBsAg and HBeAg were detected using alphalisa method using their specific antibodies. For HBV DNA detection, HBV DNA Quantitative Fluorescence Diagnostic Kit (Sansure Biotech Inc.) was used following the manufacture's protocol. Cytotoxicity was determined using Cell Counting Kit-8 (CCK8, Dojindo Molecular Technologies, Inc.).
(§2) The compounds of the present invention were tested for their capacity to inhibit HBsAg and HBeAg as described herein.
A general note: Bead proximity is the source of the signal in Alpha formats.

The nature of series [2]: Cytotoxicity in PHH natural infection assay (Cell Counting Kit-8). The conditions noted are these: HBV-infected primary human hepatocytes, CCK8. As to the method: as §1
For series [3], the system named is HBeAg. The series can be described thus: PHH HBV natural infection assay, HBeAg (alphalisa). The conditions noted are these: Hepatitis B virus, Hepatocyte, read-out: HBeAg IC50. As to the method:
as §1, §2

`CC1(NC(=O)c2ccc(S(C)(=O)=O)o2)CC2(CN(c3nc4cc(Cl)ccc4o3)C2)C1` [Example 67, N-[2-(5-chloro-1,3-benzoxazol-2-yl)-6-methyl-2-azaspiro[3.3]heptan-6-yl]-5-methylsulfonyl-furan-2-carboxamide]: the 50% inhibitory concentration (IC50) (as a rule, the concentration that gives 50% inhibition) in series [1] turned out to be 1.77 µM; in series [3], 2.13 µM. Further, the CC50 (usually the concentration at which the toxic effect on the cells reaches its halfway point) at 144 h in series [2] is > 100 µM.
The like results for `Cc1cc(C(=O)NC2CCC3(CC2)CCN(c2nc4cc(Cl)ccc4o2)CC3)ccn1` [Example 107, N-[3-(5-chloro-1,3-benzoxazol-2-yl)-3-azaspiro[5.5]undecan-9-yl]-2-methyl-pyridine-4-carboxamide] were, in that order, 0.496 µM, 0.427 µM and > 100 µM.
For the molecule `O=C(NC1CCC2(CC1)CCN(c1nc3ccccc3o1)CC2)c1ccnc(S(=O)(=O)C2CC2)c1` [Example 110, N-[3-(1,3-benzoxazol-2-yl)-3-azaspiro[5.5]undecan-9-yl]-2-cyclopropylsulfonyl-pyridine-4-carboxamide], the IC50 is 5.84 µM in series [1] and 5.58 µM in series [3]. Further, the CC50 at 144 h in series [2] was > 10 µM.
Take `CC(C)CS(=O)(=O)c1ccc(C(=O)NC2CC3(C2)CN(c2nc4cc(Cl)ccc4o2)C3)o1` [Example 54, N-[2-(5-chloro-1,3-benzoxazol-2-yl)-2-azaspiro[3.3]heptan-6-yl]-5-isobutylsulfonyl-furan-2-carboxamide]: the IC50 in series [1] was determined as 1.27 µM; in series [3] it was 0.828 µM. In series [2], the CC50 at 144 h came out at 84.5 µM.
For `NC(=O)c1ccc(C(=O)NCC2CCN(c3nc4cc(Cl)ccc4o3)CC2)o1` [Example 1, N2-[[1-(5-Chloro-1,3-benzoxazol-2-yl)-4-piperidyl]methyl]furan-2,5-dicarboxamide], in that order: 9.4 µM, 7.13 µM and > 10 µM.
Consider `NS(=O)(=O)c1ccc(C(=O)NCC2CCN(c3nc4cc(Cl)ccc4o3)CC2)o1` [Example 8, N-[[1-(5-chloro-1,3-benzoxazol-2-yl)-4-piperidyl]methyl]-5-sulfamoyl-furan-2-carboxamide], for which the IC50 in series [1] came to 3.14 µM; in series [3], 2.85 µM. Moreover, the CC50 at 144 h in series [2] was > 10 µM.
The like results for `O=C(NC1CCC2(CCN(c3nc4cc(Cl)ccc4o3)C2)C1)c1ccc(C(F)(F)F)o1` (stereo not drawn) [Example 75, N-[2-(5-chloro-1,3-benzoxazol-2-yl)-2-azaspiro[4.4]nonan-8-yl]-5-(trifluoromethyl)furan-2-carboxamide] were, in that order, 8.28 µM, 7.81 µM and 91.2 µM.
The like results for `CCS(=O)(=O)c1ccc(C(=O)NC2CC3(C2)CN(c2nc4cc(Cl)ccc4o2)C3)o1` [Example 58, N-[2-(5-chloro-1,3-benzoxazol-2-yl)-2-azaspiro[3.3]heptan-6-yl]-5-ethylsulfonyl-furan-2-carboxamide] were, in that order, 0.918 µM, 0.812 µM and > 100 µM.
In the case of `CC(C)(C)C(=O)NC1CCC2(CC1)CCN(c1nc3cc(Cl)ccc3o1)CC2` [Example 78, N-[3-(5-chloro-1,3-benzoxazol-2-yl)-3-azaspiro[5.5]undecan-9-yl]-2,2-dimethyl-propanamide], the values for the IC50 in series [1] and in series [3] were 1.47 µM and 1.2 µM, respectively. Besides, in series [2], the midpoint of cytotoxicity, the CC50 at 144 h, lay at 57.9 µM.
The like results for `NS(=O)(=O)CCC(=O)NC1CCC2(CC1)CCN(c1nc3cc(Cl)ccc3o1)CC2` [Example 82, N-[3-(5-chloro-1,3-benzoxazol-2-yl)-3-azaspiro[5.5]undecan-9-yl]-3-sulfamoyl-propanamide] were, in that order, 3.09 µM, 2.3 µM and 76.3 µM.
For `O=C(NC1CC2(C1)CN(c1nc3cc(Cl)ccc3o1)C2)c1ccc(S(=O)(=O)NC2CC2)o1` [Example 59, N-[2-(5-chloro-1,3-benzoxazol-2-yl)-2-azaspiro[3.3]heptan-6-yl]-5-(cyclopropylsulfamoyl)furan-2-carboxamide], in that order: 2.84 µM, 1.46 µM and > 10 µM.
The like results for `O=C(NC1CCC2(CC1)CCN(c1nc3cc(Cl)ccc3o1)CC2)c1ccc(S(=O)(=O)C2CC2)o1` [Example 122, N-[3-(5-chloro-1,3-benzoxazol-2-yl)-3-azaspiro[5.5]undecan-9-yl]-5-cyclopropylsulfonyl-furan-2-carboxamide] were, in that order, 0.384 µM, 0.473 µM and > 100 µM.
In the case of `Cc1ccc(S(=O)(=O)N2CCC(C(=O)NCC3CCN(c4nc5cc(Cl)ccc5o4)CC3)CC2)cc1` [Example 16, N-[[1-(5-chloro-1,3-benzoxazol-2-yl)-4-piperidyl]methyl]-1-(p-tolylsulfonyl)piperidine-4-carboxamide], the IC50 was found to be 3.74 µM in series [1] and 3.67 µM in series [3]. In addition, the CC50 at 144 h in series [2] is > 10 µM.
Regarding `CS(=N)(=O)c1ccc(C(=O)NC2CCC3(CC2)CCN(c2nc4cc(Cl)ccc4o2)CC3)o1` (stereo not drawn) [Example 109, N-[3-(5-chloro-1,3-benzoxazol-2-yl)-3-azaspiro[5.5]undecan-9-yl]-5-(methylsulfonimidoyl)furan-2-carboxamide], the IC50 in series [1] turned out to be 5.88 µM; in series [3] it was 4.66 µM. Moreover, in series [2], the CC50 at 144 h was > 100 µM.
For the molecule `CC[S+]([O-])c1ccc(C(=O)NC2CCC3(CC2)CCN(c2nc4cc(Cl)ccc4o2)CC3)o1` (stereo not drawn) [Example 103, N-[3-(5-chloro-1,3-benzoxazol-2-yl)-3-azaspiro[5.5]undecan-9-yl]-5-ethylsulfinyl-furan-2-carboxamide], the IC50 in series [1] was 1.35 µM; in series [3] it was 1.85 µM. Besides, the CC50 at 144 h in series [2] amounted to 72.7 µM.
With `O=C(NC1CC2(C1)CN(c1nc3cc(Cl)ccc3o1)C2)C1CCS(=O)(=O)C1` (stereo not drawn) [Example 26, N-[2-(5-chloro-1,3-benzoxazol-2-yl)-2-azaspiro[3.3]heptan-6-yl]-1,1-dioxo-thiolane-3-carboxamide], the IC50 was 8.76 µM in series [1] and 4.65 µM in series [3]. Besides, the CC50 at 144 h in series [2] was > 100 µM.
The like results for `CS(=O)(=O)c1ccc(C(=O)NC2CC3(C2)CN(c2nc4cc(Cl)cnc4o2)C3)o1` [Example 48, N-[2-(6-chlorooxazolo[5,4-b]pyridin-2-yl)-2-azaspiro[3.3]heptan-6-yl]-5-methylsulfonyl-furan-2-carboxamide] were, in that order, 3.8 µM, 2.95 µM and > 100 µM.
For `O=C(NC1CC2(C1)CN(c1nc3cc(Cl)ccc3o1)C2)C1CCC(F)(F)C1` (stereo not drawn) [Example 32, N-[2-(5-chloro-1,3-benzoxazol-2-yl)-2-azaspiro[3.3]heptan-6-yl]-3,3-difluoro-cyclopentanecarboxamide], in that order: 4.25 µM, 10.3 µM and > 100 µM.
Turning to `CC1(C(=O)NC2CCC3(CC2)CCN(c2nc4cc(Cl)ccc4o2)CC3)CCS(=O)(=O)CC1` [Example 99, N-[3-(5-chloro-1,3-benzoxazol-2-yl)-3-azaspiro[5.5]undecan-9-yl]-4-methyl-1,1-dioxo-thiane-4-carboxamide], the IC50 in series [1] was 2.63 µM; in series [3] it was 2.02 µM. The molecule further yielded a CC50 at 144 h in series [2] of 94.1 µM.

For the origin of these results see patent US20230416238A1, “N-[(1,3-BENZOXAZOL-2-YL)-HETEROCYCLE]AMIDE DERIVATIVES FOR THE TREATMENT AND PROPHYLAXIS OF HEPATITIS B VIRUS INFECTION” (Hoffmann-La Roche Inc., priority 2020, published 2023).
